Target: Human transferrin (Htf) (Homo sapiens, UniProt P02787)
Test: isothermal titration calorimetry
Type: binding

Sequence of Human transferrin (Htf) (P02787 20-698): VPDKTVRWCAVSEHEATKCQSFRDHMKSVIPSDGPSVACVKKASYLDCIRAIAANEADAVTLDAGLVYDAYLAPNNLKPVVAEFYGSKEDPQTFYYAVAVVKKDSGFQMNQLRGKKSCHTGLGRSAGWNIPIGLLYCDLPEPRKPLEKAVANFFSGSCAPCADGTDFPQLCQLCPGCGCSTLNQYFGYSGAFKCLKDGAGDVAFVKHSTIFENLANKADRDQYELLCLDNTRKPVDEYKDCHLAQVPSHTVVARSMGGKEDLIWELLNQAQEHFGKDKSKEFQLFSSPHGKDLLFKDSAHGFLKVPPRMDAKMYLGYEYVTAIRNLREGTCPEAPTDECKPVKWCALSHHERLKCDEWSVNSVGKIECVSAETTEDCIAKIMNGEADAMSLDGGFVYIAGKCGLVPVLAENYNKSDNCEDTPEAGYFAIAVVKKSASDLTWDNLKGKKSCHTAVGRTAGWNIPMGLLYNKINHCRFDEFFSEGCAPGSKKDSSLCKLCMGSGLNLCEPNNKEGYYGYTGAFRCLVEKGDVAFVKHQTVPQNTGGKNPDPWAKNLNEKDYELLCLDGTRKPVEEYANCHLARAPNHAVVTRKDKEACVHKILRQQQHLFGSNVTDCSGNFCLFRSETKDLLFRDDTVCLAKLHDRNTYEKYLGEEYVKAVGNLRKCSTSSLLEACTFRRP

Kd: 1450 nM
SMILES: O=c1oc2c(O)c(O)cc3c(=O)oc4c(O)c(O)cc1c4c23 [Ellagic acid]

Source: PMC11007773 (ACS Omega, 2024)
